Measurements from patent US7868026B2, “Therapeutic compounds” (Pfizer Inc., priority 2005, dated 2011).
Read-outs that look alike come from different tables or passages of the source.

How the values were obtained:
CYP3A4 [1] = target: T1, CYP3A4 (Homo sapiens, UniProt P08684); test: Determination of compound Kiapp against recombinant CYP3A4 enzyme (BFC fluorescent substrate); type: biochemical
Method: 1. Determination of compound Kiapp
A determination of the Kiapp of the compounds of the invention against recombinant CYP3A4 enzyme was performed as follows. The assay was performed in a 100 mM sodium phosphate buffer pH 7.0, 5 mM TCEP and containing 2% dimethylformamide (final concentration) upon addition of substrate and inhibitor. A typical reaction for the determination of Kiapp values was carried at room temperature in a solid black Costar u-bottom 96-well polypropylene plate. In each well, recombinant CYP3A4 enzyme (5.5 nM or 8 nM, final concentration depending on the commercial source of the enzyme) was pre-incubated in the presence of the inhibitor for at least 30 minutes in the assay buffer. When pre-incubation was completed (˜30 min), the reaction was initiated by adding NADPH (200 uM, final concentration), and 7-benzyloxy-4-(trifluoromethyl)-coumarin (BFC) (5 uM, final concentration). The oxidation of the coumarin substrate was recorded by a 96-well plate reader POLARstar (BMG LABTECH, Offenburg, Germany).
The initial reaction velocities were measured during the first 5 min of the reaction when the release of the fluorescent product is linear with time, in the absence and in the presence of various concentrations of inhibitors. For non-partial & partial inhibitors, the Kiapp values were determined by using the equation for tight-binding inhibitor developed by Morrison, J F (Morrison J F. Biochim Biophys Acta. 1969, 185: 269-86) and by Szedlaseck S E et al. (Szedlascek, S. E., Ostafe, V., Serban, M., and Vlad, M.O. Biochem. J. 1988, 254:311-312), respectively.
The fluorescent substrate BFC was purchased from Sigma (St Louis, Mo.). Two commercial sources of recombinant enzymes were used in this study: recombinant CYP3A4−b5 enzyme (Baculosomes®) was purchased from Invitrogen (Carlsbad, Calif.) and the recombinant CYP3A4+b5 enzyme (Supersomes®) was purchased from BD Biosciences (Woburn, Mass.).

CYP3A4 [2] = target: T1, CYP3A4; test: Determination of IC50 against CYP3A4 by measurement of inhibition of midazolam metabolism (human liver microsomes, 1-hydroxymidazolam by LC-MS/MS); type: biochemical; design: 0.1 mg/mL human liver microsomes; settings: 2 μM midazolam, 0.1 mg/mL human liver microsomes
Method: 3. Determination of IC50 Against CYP3A4 by Measurement of Inhibition of Midazolam Metabolism
This assay was performed using a standard 96 well plate design. […] The incubation substrate mix contains 2 μM midazolam, 0.1 mg/mL human liver microsomes, 1 mM NADPH, and potassium phosphate buffer (100 mM, pH 7.4). Quantitation of metabolite peak area ratio against internal standard is determined by LC-MS/MS analysis. The production of 1-hydroxymidazolam from midazolam metabolism is determined after incubation for eight minutes by comparison to a standard curve generated for the metabolite.
Samples were analyzed in the MRM mode using a Sciex API 3000 mass spectrometer (Applied Biosystems, Foster City, Calif.) with a Paradigm MS4 binary pump (Michrom BioResources Inc., Auburn, Calif.) and a LEAP CTC PAL autosampler (LEAP Technologies, Carrboro, N.C.). A Phenomenex Synergi, 4μ, Polar-RP, 10×2.0 mm column (Phenomenex, Torrance, Calif.) was used for separation with a mobile phase composition of: 0.1% formic acid in water (A) and: 0.1% formic acid in methanol (B). The following gradient was used: […]
The sample injection volume was 10 μL and flow was split post-column with 0.4 mL/min going to the mass spectrometer. Analysis was performed using the following API 3000 mass spectrometer settings: […]

[3] = Baculo. enzyme preparation, read-out: Kiapp (BFC, Baculo.)
[4] = Super. enzyme preparation, read-out: Kiapp (BFC, Super.)

T1 sequence (P08684 whole entry): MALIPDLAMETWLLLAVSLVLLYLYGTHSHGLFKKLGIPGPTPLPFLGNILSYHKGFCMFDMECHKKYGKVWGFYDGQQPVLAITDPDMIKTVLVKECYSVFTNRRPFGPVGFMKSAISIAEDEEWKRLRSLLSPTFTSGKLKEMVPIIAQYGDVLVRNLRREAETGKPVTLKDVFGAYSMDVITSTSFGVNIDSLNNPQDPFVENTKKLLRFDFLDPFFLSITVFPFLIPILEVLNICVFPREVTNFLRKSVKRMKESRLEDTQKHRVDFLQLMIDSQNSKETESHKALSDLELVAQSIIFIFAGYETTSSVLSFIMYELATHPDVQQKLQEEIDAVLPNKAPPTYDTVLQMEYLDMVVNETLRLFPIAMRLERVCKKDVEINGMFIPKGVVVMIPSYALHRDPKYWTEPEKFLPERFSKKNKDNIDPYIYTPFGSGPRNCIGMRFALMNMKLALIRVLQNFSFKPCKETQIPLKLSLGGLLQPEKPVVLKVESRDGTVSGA

For `Cc1cncc(NS(=O)(=O)c2ccccc2C(=O)NCc2ccc(C#N)cc2Cl)c1` [Example 91, N-(2-chloro-4-cyanobenzyl)-2-{[(5-methylpyridin-3-yl)amino]sulfonyl}benzamide], the Ki (CYP3A4 [1]; [3]) was 0.058 µM, the Ki (CYP3A4 [1]; [4]) was 0.0172 µM and the IC50 (CYP3A4 [2]) was 0.018 µM.
For `Cc1cncc(NS(=O)(=O)c2ccccc2C(=O)NC(C(C)C)C(C)C)c1` [Example 92, N-(1-isopropyl-2-methylpropyl)-2-{[(5-methylpyridin-3-yl)amino]sulfonyl}benzamide], the Ki (CYP3A4 [1]; [3]) was 0.0457 µM, the Ki (CYP3A4 [1]; [4]) was 0.0175 µM and the IC50 (CYP3A4 [2]) was 0.022 µM.
Compound `COc1ccccc1CNC(=O)c1ccccc1S(=O)(=O)Nc1cncc(C)c1` [Example 93, N-(2-methoxybenzyl)-2-{[(5-methylpyridin-3-yl)amino]sulfonyl}benzamide] has a Ki (CYP3A4 [1]; [3]) of 0.166 µM, a Ki (CYP3A4 [1]; [4]) of 0.0147 µM and an IC50 (CYP3A4 [2]) of 0.01 µM.
Work on `Cc1cncc(NS(=O)(=O)c2ccccc2C(=O)NCc2ccc3c(c2)CCO3)c1` [Example 94, N-(2,3-dihydro-1-benzofuran-5-ylmethyl)-2-{[(5-methylpyridin-3-yl)amino]sulfonyl}benzamide] yielded a Ki (CYP3A4 [1]; [3]) of 0.182 µM, a Ki (CYP3A4 [1]; [4]) of 0.0257 µM and an IC50 (CYP3A4 [2]) of 0.016 µM.
For `Cc1cncc(NS(=O)(=O)c2ccccc2C(=O)NC(C)CC(C)C)c1` (stereo not drawn) [Example 95, N-(1,3-dimethylbutyl)-2-{[(5-methylpyridin-3-yl)amino]sulfonyl}benzamide], the Ki (CYP3A4 [1]; [3]) was 0.078 µM, the Ki (CYP3A4 [1]; [4]) was 0.0254 µM and the IC50 (CYP3A4 [2]) was 0.008 µM.
In the case of `CC[C@H](C)CNC(=O)c1ccccc1S(=O)(=O)Nc1cncc(OC)c1` [Example 96, 2-{[(5-methoxypyridin-3-yl)amino]sulfonyl}-N-[(2S)-2-methylbutyl]benzamide], the Ki (CYP3A4 [1]; [3]) is reported as 0.124 µM, the Ki (CYP3A4 [1]; [4]) is reported as 0.0223 µM and the IC50 (CYP3A4 [2]) is reported as 0.009 µM.
In the case of `COc1cncc(NS(=O)(=O)c2ccccc2C(=O)N(Cc2nccn2C)C(C)C)c1` [Example 97, N-isopropyl-2-{[(5-methoxypyridin-3-yl)amino]sulfonyl}-N-[(1-methyl-1H-imidazol-2-yl)methyl]benzamide], the Ki (CYP3A4 [1]; [3]) is reported as 0.421 µM, the Ki (CYP3A4 [1]; [4]) is reported as 0.157 µM and the IC50 (CYP3A4 [2]) is reported as 0.107 µM.
Work on `COc1cncc(NS(=O)(=O)c2ccccc2C(=O)N(CCO)C(C)C)c1` [Example 98, N-(2-hydroxyethyl)-N-isopropyl-2-{[(5-methoxypyridin-3-yl)amino]sulfonyl}benzamide] yielded a Ki (CYP3A4 [1]; [3]) of 0.506 µM, a Ki (CYP3A4 [1]; [4]) of 0.196 µM and an IC50 (CYP3A4 [2]) of 0.051 µM.
With `COc1cncc(NS(=O)(=O)c2ccccc2C(=O)N(CC(C)O)C(C)C)c1` (stereo not drawn) [Example 99, N-(2-hydroxypropyl)-N-isopropyl-2-{[(5-methoxypyridin-3-yl)amino]sulfonyl}benzamide] the Ki (CYP3A4 [1]; [3]) was 0.406 µM, the Ki (CYP3A4 [1]; [4]) was 0.223 µM and the IC50 (CYP3A4 [2]) was 0.09 µM.
Compound `CCCN(C(=O)c1ccccc1S(=O)(=O)Nc1cncc(OC)c1)C(C)C` [Example 100, N-isopropyl-2-{[(5-methoxypyridin-3-yl)amino]sulfonyl}-N-propylbenzamide] has a Ki (CYP3A4 [1]; [3]) of 0.0883 µM, a Ki (CYP3A4 [1]; [4]) of 0.0357 µM and an IC50 (CYP3A4 [2]) of 0.014 µM.
`CC[C@@H](C)NC(=O)c1ccccc1S(=O)(=O)Nc1cncc(OC)c1` [Example 101, 2-{[(5-methoxypyridin-3-yl)amino]sulfonyl}-N-[(1R) -1-methylpropyl]benzamide] gave a Ki (CYP3A4 [1]; [3]) of 0.244 µM, a Ki (CYP3A4 [1]; [4]) of 0.0548 µM and an IC50 (CYP3A4 [2]) of 0.026 µM.
For `CC[C@H](C)NC(=O)c1ccccc1S(=O)(=O)Nc1cncc(OC)c1` [Example 102, 2-{[(5-methoxypyridin-3-yl)amino]sulfonyl}-N-[(1S) -1-methylpropyl]benzamide], the Ki (CYP3A4 [1]; [3]) was 0.375 µM, the Ki (CYP3A4 [1]; [4]) was 0.056 µM and the IC50 (CYP3A4 [2]) was 0.055 µM.
In the case of `CCOc1ccncc1NS(=O)(=O)c1ccccc1C(=O)N(C)Cc1cccc(F)c1` [Example 103, 2-{[(4-ethoxypyridin-3-yl)amino]sulfonyl}-N-(3-fluorobenzyl)-N-methylbenzamide], the Ki (CYP3A4 [1]; [3]) is reported as 0.129 µM, the Ki (CYP3A4 [1]; [4]) is reported as 0.026 µM and the IC50 (CYP3A4 [2]) is reported as 0.021 µM.
`COc1ccncc1NS(=O)(=O)c1ccccc1C(=O)N(C)Cc1cccc(F)c1` [Example 104, N-(3-fluorobenzyl)-2-{[(4-methoxypyridin-3-yl)amino]sulfonyl}-N-methylbenzamide] was tested, and the Ki (CYP3A4 [1]; [3]) was 0.141 µM, the Ki (CYP3A4 [1]; [4]) was 0.0235 µM and the IC50 (CYP3A4 [2]) was 0.035 µM.
`CCOc1ccncc1NS(=O)(=O)c1ccccc1C(=O)NC(C)(C)CC` [Example 105, N-(1,1-dimethylpropyl)-2-{[(4-ethoxypyridin-3-yl)amino]sulfonyl}benzamide] was tested, and the Ki (CYP3A4 [1]; [3]) was 0.0831 µM, the Ki (CYP3A4 [1]; [4]) was 0.0286 µM and the IC50 (CYP3A4 [2]) was 0.021 µM.
Work on `CCC(C)(C)NC(=O)c1ccccc1S(=O)(=O)Nc1cnccc1OC` [Example 106, N-(1,1-dimethylpropyl)-2-{[(4-methoxypyridin-3-yl)amino]sulfonyl}benzamide] yielded a Ki (CYP3A4 [1]; [3]) of 0.345 µM, a Ki (CYP3A4 [1]; [4]) of 0.0875 µM and an IC50 (CYP3A4 [2]) of 0.051 µM.
`CCOc1ccncc1NS(=O)(=O)c1ccccc1C(=O)N[C@@H](C)C(C)C` [Example 107, N-[(1S)-12-dimethylpropyl]-2-{[(4-ethoxypyridin-3-yl)amino]sulfonyl}benzamide] gave a Ki (CYP3A4 [1]; [3]) of 0.214 µM, a Ki (CYP3A4 [1]; [4]) of 0.044 µM and an IC50 (CYP3A4 [2]) of 0.057 µM.
For `COc1ccncc1NS(=O)(=O)c1ccccc1C(=O)N[C@@H](C)C(C)C` [Example 108], the Ki (CYP3A4 [1]; [3]) was 0.506 µM, the Ki (CYP3A4 [1]; [4]) was 0.115 µM and the IC50 (CYP3A4 [2]) was 0.098 µM.
With `CCN(C(=O)c1ccccc1S(=O)(=O)Nc1cncc(OC)c1)C(C)C` [Example 109, N-ethyl-N-isopropyl-2-{[(5-methoxypyridin-3-yl)amino]sulfonyl}benzamide] the Ki (CYP3A4 [1]; [3]) was 0.213 µM, the Ki (CYP3A4 [1]; [4]) was 0.0372 µM and the IC50 (CYP3A4 [2]) was 0.035 µM.
For `CCOc1ccncc1NS(=O)(=O)c1ccccc1C(=O)N[C@H](C)C(C)C` [Example 110, N-[(1R)-12-dimethylpropyl]-2-{[(4-ethoxypyridin-3-yl)amino]sulfonyl}benzamide], the Ki (CYP3A4 [1]; [3]) was 0.156 µM, the Ki (CYP3A4 [1]; [4]) was 0.0504 µM and the IC50 (CYP3A4 [2]) was 0.026 µM.
With `COc1cncc(NS(=O)(=O)c2ccc(OC)cc2C(=O)NCc2ccc(F)cc2)c1` [Example 111, N-(4-fluorobenzyl)-5-methoxy-2-{[(5-methoxypyridin-3-yl)amino]sulfonyl}benzamide] the Ki (CYP3A4 [1]; [3]) was 0.0273 µM, the Ki (CYP3A4 [1]; [4]) was 0.0068 µM and the IC50 (CYP3A4 [2]) was 0.01 µM.
For `COc1ccncc1NS(=O)(=O)c1ccccc1C(=O)N[C@H](C)C(C)C` [Example 112, N-[(1R)-12-dimethylpropyl]-2-{[(4-methoxypyridin-3-yl)amino]sulfonyl}benzamide], the Ki (CYP3A4 [1]; [3]) was 0.438 µM, the Ki (CYP3A4 [1]; [4]) was 0.119 µM and the IC50 (CYP3A4 [2]) was 0.046 µM.
`CCC(C)NC(=O)c1ccccc1S(=O)(=O)Nc1cncc(N)c1` (stereo not drawn) [Example 113, 2-{[(5-aminopyridin-3-yl)amino]sulfonyl}-N-(sec-butyl)benzamide] gave a Ki (CYP3A4 [1]; [3]) of 0.698 µM, a Ki (CYP3A4 [1]; [4]) of 0.0975 µM and an IC50 (CYP3A4 [2]) of 0.09 µM.
Work on `COCCN(C(=O)c1ccccc1S(=O)(=O)Nc1cncc(N)c1)C(C)C` [Example 114, 2-{[(5-aminopyridin-3-yl)amino]sulfonyl}-N-isopropyl-N-(2-methoxyethyl)benzamide] yielded a Ki (CYP3A4 [1]; [3]) of 0.466 µM, a Ki (CYP3A4 [1]; [4]) of 0.105 µM and an IC50 (CYP3A4 [2]) of 0.134 µM.
With `CCOc1ccncc1NS(=O)(=O)c1ccccc1C(=O)NCC(C)CC` (stereo not drawn) [Example 115, 2-{[(4-ethoxypyridin-3-yl)amino]sulfonyl}-N-(2-methylbutyl)benzamide] the Ki (CYP3A4 [1]; [3]) was 0.124 µM, the Ki (CYP3A4 [1]; [4]) was 0.026 µM and the IC50 (CYP3A4 [2]) was 0.023 µM.
Compound `CCC(C)CNC(=O)c1ccccc1S(=O)(=O)Nc1cnccc1OC` (stereo not drawn) [Example 116, 2-{[(4-methoxypyridin-3-yl)amino]sulfonyl}-N-(2-methylbutyl)benzamide] has a Ki (CYP3A4 [1]; [3]) of 0.317 µM, a Ki (CYP3A4 [1]; [4]) of 0.0509 µM and an IC50 (CYP3A4 [2]) of 0.033 µM.
With `CN(c1cccnc1)S(=O)(=O)c1ccccc1C(=O)NCc1ccc(F)c(F)c1` [Example 327, N-(3,4-difluorobenzyl)-2-{[methyl(pyridin-3-yl)amino]sulfonyl}benzamide] the Ki (CYP3A4 [1]; [3]) was 0.0864 µM and the Ki (CYP3A4 [1]; [4]) was 0.0198 µM.
For `O=C(NCc1ccc(F)c(F)c1)c1ccccc1S(=O)(=O)Nc1cncc(OCc2ccccc2)c1` [Example 393, 2-({[5-(benzyloxy)pyridin-3-yl]amino}sulfonyl)-N-(3,4-diflorobenzyl)benzamide], the IC50 (CYP3A4 [2]) was 0.008 µM.
